Experimental data as given in ChEMBL document CHEMBL1201862, “PubChem BioAssay data set” (2004).
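Five compound concentrations were applied to cells in 96-well plates for 48 hours; endpoints were derived by simple linear interpolation of the resulting dose-response curve. The concentration for 50% growth inhibition is given as GI50.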 The source made the active and inactive calls. Cut-off read from the data, not from the text of the source: active = GI50 up to about 1.1 µM and inactive = higher.

Columns and labels:
Assay in all cases: DTP human tumour cell line panel, 48 h
BT-549 = tested on: BT-549
K562 = tested on: K562
CAKI-1 = tested on: CAKI-1
ACHN = tested on: ACHN
RPMI-8226 = tested on: RPMI-8226
MDA-MB-231 = tested on: MDA-MB-231
MOLT-4 = tested on: MOLT-4
LOX IMVI = tested on: LOX IMVI
HCT-15 = tested on: HCT-15
OVCAR-5 = tested on: OVCAR-5
Hs-578T = tested on: Hs-578T
NCI/ADR-RES = tested on: NCI/ADR-RES
HCT-116 = tested on: HCT-116
U-251 = tested on: U-251
A549 = tested on: A549
HOP-92 = tested on: HOP-92
SK-MEL-2 = tested on: SK-MEL-2
PC-3 = tested on: PC-3
UACC-257 = tested on: UACC-257
UO-31 = tested on: UO-31

| Compound | GI50 (BT-549) | GI50 (K562) | GI50 (CAKI-1) | GI50 (ACHN) | GI50 (RPMI-8226) | GI50 (MDA-MB-231) | GI50 (MOLT-4) | GI50 (LOX IMVI) | GI50 (HCT-15) | GI50 (OVCAR-5) | GI50 (Hs-578T) | GI50 (NCI/ADR-RES) | GI50 (HCT-116) | GI50 (U-251) | GI50 (A549) | GI50 (HOP-92) | GI50 (SK-MEL-2) | GI50 (PC-3) | GI50 (UACC-257) | GI50 (UO-31) |
| --- | --- | --- | --- | --- | --- | --- | --- | --- | --- | --- | --- | --- | --- | --- | --- | --- | --- | --- | --- | --- |
| Cc1sc(/N=C/c2c[nH]c3ccccc23)c(C#N)c1C | 42.1 µM (inactive) | 16.3 µM (inactive) | 56.2 µM (inactive) | 29.6 µM (inactive) | 19.7 µM (inactive) | 36.4 µM (inactive) | 23 µM (inactive) | 34.6 µM (inactive) | 24 µM | > 100 µM (inactive) | 58.1 µM (inactive) | 74.6 µM (inactive) | 23.4 µM (inactive) | 21.5 µM (inactive) | 65 µM (inactive) | 45.7 µM (inactive) | 30.5 µM (inactive) | 45.7 µM (inactive) | 44.6 µM (inactive) | 48 µM (inactive) |
| CCOC(=O)CCC(NC(=O)c1ccc(Nc2nc3ccccc3n3cccc23)cc1)C(=O)OCC (stereo not given) | 23.3 µM (inactive) | 38.5 µM (inactive) | 33.6 µM (inactive) | 20.6 µM (inactive) | 23.1 µM (inactive) | 21.5 µM (inactive) | 18.3 µM (inactive) | 26.1 µM (inactive) | 29.7 µM | 45.6 µM (inactive) | 35.6 µM (inactive) | 19.5 µM (inactive) | 31.2 µM (inactive) | 23 µM (inactive) | 39.6 µM (inactive) | 32.1 µM (inactive) | 20 µM (inactive) | 16.4 µM (inactive) | 26.2 µM (inactive) | 44.9 µM (inactive) |
| O=C(NC1CCN(Cc2ccccc2)CC1)c1ccc(I)cc1 | 87.5 µM (inactive) | 42.4 µM (inactive) | 70.1 µM (inactive) | 96.2 µM (inactive) | 63.5 µM (inactive) | 19.4 µM (inactive) | > 100 µM (inactive) | > 100 µM (inactive) | 59.6 µM | > 100 µM (inactive) | 33.2 µM (inactive) | > 100 µM (inactive) | 39.6 µM (inactive) | 81.1 µM (inactive) | 76.4 µM (inactive) | 34 µM (inactive) | 75.9 µM (inactive) | 62.7 µM (inactive) | 45.8 µM (inactive) | 22.9 µM (inactive) |
| Cn1c(-c2ccccc2)cc(-c2ccsc2)c1-c1ccsc1 | > 100 µM (inactive) | > 100 µM (inactive) | > 100 µM (inactive) | > 100 µM (inactive) | > 100 µM (inactive) | > 100 µM (inactive) | > 100 µM (inactive) | > 100 µM (inactive) | > 100 µM | > 100 µM (inactive) | > 100 µM (inactive) | > 100 µM (inactive) | 55.5 µM (inactive) | > 100 µM (inactive) | > 100 µM (inactive) | > 100 µM (inactive) | > 100 µM (inactive) | > 100 µM (inactive) | > 100 µM (inactive) | > 100 µM (inactive) |
| COc1cc2cc(C(=O)N3CC(CCl)c4ccc([N+](=O)[O-])cc43)[nH]c2c(OC)c1OC (stereo not given) | > 100 µM (inactive) | > 100 µM (inactive) | > 100 µM (inactive) | > 100 µM (inactive) | > 100 µM (inactive) | > 100 µM (inactive) | > 100 µM (inactive) | > 100 µM (inactive) | > 100 µM | > 100 µM (inactive) | 74.5 µM (inactive) | > 100 µM (inactive) | > 100 µM (inactive) | > 100 µM (inactive) | > 100 µM (inactive) | > 100 µM (inactive) | > 100 µM (inactive) | > 100 µM (inactive) | > 100 µM (inactive) | > 100 µM (inactive) |
